According to US10179790B2 (THOMAS HELLEDAYS STIFTELSE FOR MEDICINSK FORSKNING, priority 2014, dated 2019):

Legend:
[1] = target: MTH1 (Homo sapiens, UniProt P36639); experiment: MTH1 enzymatic assay and IC50 value determination (malachite green, 96- and 384-well format); type: biochemical; details: hydrolysis of dGTP (100 μM), MTH1 6 nM, pyrophosphatase-coupled malachite green, 15 minutes at 22° C.
Method in brief: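 MTH1 (6 nM) hydrolysed dGTP (100 μM) for 15 min at 22 °C in Tris-acetate buffer with Mg2+, DTT, Tween 20 and excess pyrophosphatase, 1% DMSO. Pi detected with malachite green at 630 nm. IC50 from nonlinear 4-parameter fit of 11–12-point dilution series.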

[2] = tested on: cancer cell; experiment: Cell viability assay (resazurin); type: cell-based; details: 72 h; 3 days with compound, resazurin fluorescence; cell line not named
Description: The utility of the compounds of the present invention can be illustrated, for example, by their activity in vitro in the cancer cell clonogenic and/or viability assay described below. The link between activity in tumor cell clonogenic assay and anti-tumor activity in the clinical setting has been well established in the art (e.g. see ref Silverstini et al Stem Cells 1993, 11(6), 258-35).
Cells are seeded into 96 well plates (1000-3000 cells/well) in DMEM GlutaMAX™ or other suitable media dependent on cell line and incubated overnight in 5% CO2, 37° C. Thereafter cells are treated with compound or vehicle and left in incubator for 3 days until staining with resazurin. Cells are incubated in resazurin (diluted in suitable media) at 37° C. for 2 hours before measuring the fluorescence (Ex544/Em590).
The compounds to be tested are nano-dispensed in 11 concentrations, directly in 384-well cell plates, with a final DMSO concentration <1%. Cells are seeded in cell plates, pre-dispensed with compounds, 50 μl/well (600-1200 cells/well). After 3 days culture in 5% CO2, 37° C., resazurin diluted in PBS is added, 10 μl/well, and cells are incubated 3 hours before measuring fluorescence (Ex544/Em590).

| IC50 [1] | IC50 [2] | SMILES |
| --- | --- | --- |
| < 200 nM | < 500 nM | Cc1c(Cl)cccc1-c1cc(NCCOc2ccc(C(N)=O)cn2)nc(N)n1 [Example 55, 6-(2-{[2-amino-6-(3-chloro-2-methylphenyl)pyrimidin-4-yl]amino}ethoxy)pyridine-3-carboxamide] |
| < 200 nM | < 500 nM | Cc1c(Cl)cccc1-c1cc(NCCNc2ccc3c(c2)NC(=O)C(C)(C)O3)nc(N)n1 [Example 56, 6-[(2-{[2-amino-6-(3-chloro-2-methylphenyl)pyrimidin-4-yl]amino}ethyl)amino]-2,2-dimethyl-3,4-dihydro-2H-1,4-benzoxazin-3-one] |
| < 200 nM | < 500 nM | Cc1c(Cl)cccc1-c1cc(NCCOc2nccc(C(N)=O)n2)nc(N)n1 [Example 57, 2-(2-{[2-amino-6-(3-chloro-2-methylphenyl)pyrimidin-4-yl]amino}ethoxy)pyrimidine-4-carboxamide] |
| < 200 nM | < 500 nM | Cc1c(Cl)cccc1-c1cc(NCCc2ccc(NC(=O)C(C)(C)C)cc2)nc(N)n1 [Example 59, N-[4-(2-{[2-amino-6-(3-chloro-2-methylphenyl)pyrimidin-4-yl]amino}ethyl)phenyl]-2,2-dimethylpropanamide] |
| < 200 nM | < 500 nM | Cc1c(Cl)cccc1-c1cc(NCCc2ccc(NS(=O)(=O)CC(F)(F)F)cc2)nc(N)n1 [Example 60, N-[4-(2-{[2-amino-6-(3-chloro-2-methylphenyl)pyrimidin-4-yl]amino}ethyl)phenyl]-2,2,2-trifluoroethane-1-sulfonamide] |
| < 200 nM | < 500 nM | Cc1c(Cl)cccc1-c1cc(NCCc2ccc(NC(=O)NC(C)C)cc2)nc(N)n1 [Example 61, 1-[4-(2-{[2-amino-6-(3-chloro-2-methylphenyl)pyrimidin-4-yl]amino}ethyl)phenyl]-3-(propan-2-yl)urea] |
| < 200 nM | < 500 nM | Cc1c(Cl)cccc1-c1cc(NCCc2ccc(NC(=O)OC(C)(C)C)cc2)nc(N)n1 [Example 62, tert-butyl N-[4-(2-{[2-amino-6-(3-chloro-2-methylphenyl)pyrimidin-4-yl]amino}ethyl)phenyl]carbamate] |
| < 200 nM | < 500 nM | CCS(=O)(=O)Nc1ccc(CCNc2cc(-c3cccc(Cl)c3C)nc(N)n2)cc1 [Example 64, N-[4-(2-{[2-amino-6-(3-chloro-2-methylphenyl)pyrimidin-4-yl]amino}ethyl)phenyl]ethane-1-sulfonamide] |
| < 200 nM | < 500 nM | Cc1cc(C)c(-c2cc(NCCc3ccc(S(N)(=O)=O)cc3)nc(N)n2)cc1C [Example 65, 4-(2-{[2-amino-6-(2,4,5-trimethylphenyl)pyrimidin-4-yl]amino}ethyl)benzene-1-sulfonamide] |
| < 200 nM | < 500 nM | COc1cc(C)c(-c2cc(NCCc3ccc(S(N)(=O)=O)cc3)nc(N)n2)cc1C [Example 66, 4-(2-{[2-amino-6-(4-methoxy-2,5-dimethylphenyl)pyrimidin-4-yl]amino}ethyl)benzene-1-sulfonamide] |
| < 200 nM | < 500 nM | Cc1ccc(C)c(-c2cc(NCCc3ccc(S(N)(=O)=O)cc3)nc(N)n2)c1 [Example 70, 4-(2-{[2-amino-6-(2,5-dimethylphenyl)pyrimidin-4-yl]amino}ethyl)benzene-1-sulfonamide] |
| < 200 nM | < 500 nM | Cc1c(-c2cc(NCCc3ccc(S(N)(=O)=O)cc3)nc(N)n2)cc(Cl)c(Cl)c1Cl [Example 72, 4-(2-{[2-amino-6-(3,4,5-trichloro-2-methylphenyl)pyrimidin-4-yl]amino}ethyl)benzene-1-sulfonamide] |
| < 200 nM | < 500 nM | Cc1cc(Cl)cc(-c2cc(NCCc3ccc(S(N)(=O)=O)cc3)nc(N)n2)c1F [Example 73, 4-(2-{[2-amino-6-(5-chloro-2-fluoro-3-methylphenyl)pyrimidin-4-yl]amino}ethyl)benzene-1-sulfonamide] |
| < 200 nM | < 500 nM | Cc1c(Cl)cc(Cl)cc1-c1cc(NCCc2ccc(S(N)(=O)=O)cc2)nc(N)n1 [Example 74, 4-(2-{[2-amino-6-(3,5-dichloro-2-methylphenyl)pyrimidin-4-yl]amino}ethyl)benzene-1-sulfonamide] |
| < 200 nM | < 500 nM | Cc1c(-c2cc(NCCc3ccc(C(N)=O)cc3)nc(N)n2)cc(Cl)c(Cl)c1Cl [Example 75, 4-(2-{[2-amino-6-(3,4,5-trichloro-2-methylphenyl)pyrimidin-4-yl]amino}ethyl)benzamide] |
| < 200 nM | < 500 nM | Cc1c(Cl)cc(Cl)cc1-c1cc(NCCc2ccc(C(N)=O)cc2)nc(N)n1 [Example 76, 4-(2-{[2-amino-6-(3,5-dichloro-2-methylphenyl)pyrimidin-4-yl]amino}ethyl)benzamide] |
| < 200 nM | < 500 nM | Cc1c(F)ccc(-c2cc(NCCc3ccc(C(N)=O)cc3)nc(N)n2)c1C [Example 77, 4-(2-{[2-amino-6-(4-fluoro-2,3-dimethylphenyl)pyrimidin-4-yl]amino}ethyl)benzamide] |
| < 200 nM | < 500 nM | Cc1c(-c2cc(NCCc3ccc(C(N)=O)cc3)nc(N)n2)ccc(Cl)c1Cl [Example 78, 4-(2-{[2-amino-6-(3,4-dichloro-2-methylphenyl)pyrimidin-4-yl]amino}ethyl)benzamide] |
| < 200 nM | < 500 nM | Cc1cc(Cl)cc(-c2cc(NCCc3ccc(C(N)=O)cc3)nc(N)n2)c1F [Example 79, 4-(2-{[2-amino-6-(5-chloro-2-fluoro-3-methylphenyl)pyrimidin-4-yl]amino}ethyl)benzamide] |
| < 200 nM | < 500 nM | Cc1c(Cl)cccc1-c1cc(NCCc2cccc(NC(=O)C(C)(C)C)c2)nc(N)n1 [Example 81, N-[3-(2-{[2-amino-6-(3-chloro-2-methylphenyl)pyrimidin-4-yl]amino}ethyl)phenyl]-2,2-dimethylpropanamide] |
| < 200 nM | < 500 nM | Cc1c(Cl)cccc1-c1cc(NCCc2cccc(NC(=O)NC(C)C)c2)nc(N)n1 [Example 82, 1-[3-(2-{[2-amino-6-(3-chloro-2-methylphenyl)pyrimidin-4-yl]amino}ethyl)phenyl]-3-(propan-2-yl)urea] |
| < 200 nM | < 500 nM | Cc1c(Cl)cccc1-c1cc(NCCc2cccc(NC(=O)OC(C)(C)C)c2)nc(N)n1 [Example 83, tert-butyl N-[3-(2-{[2-amino-6-(3-chloro-2-methylphenyl)pyrimidin-4-yl]amino}ethyl)phenyl]carbamate] |
| < 200 nM | < 500 nM | Cc1c(Cl)cccc1-c1cc(NCCc2cccc(NC(=O)C3CC3)c2)nc(N)n1 [Example 84, N-[3-(2-{[2-amino-6-(3-chloro-2-methylphenyl)pyrimidin-4-yl]amino}ethyl)phenyl]cyclopropanecarboxamide] |
| < 200 nM | < 500 nM | Cc1c(Cl)cccc1-c1cc(NCCc2cccc(NS(=O)(=O)CC(C)C)c2)nc(N)n1 [Example 85, N-[3-(2-{[2-amino-6-(3-chloro-2-methylphenyl)pyrimidin-4-yl]amino}ethyl)phenyl]-2-methylpropane-1-sulfonamide] |
| < 200 nM | < 500 nM | Cc1c(Cl)cccc1-c1cc(NCCc2ccc(NS(=O)(=O)C(C)C)cc2)nc(N)n1 [Example 86, N-[4-(2-{[2-amino-6-(3-chloro-2-methylphenyl)pyrimidin-4-yl]amino}ethyl)phenyl]propane-2-sulfonamide] |
| < 200 nM | < 500 nM | Cc1c(Cl)cccc1-c1cc(NCCc2ccc(NS(=O)(=O)CC(C)C)cc2)nc(N)n1 [Example 87, N-[4-(2-{[2-amino-6-(3-chloro-2-methylphenyl)pyrimidin-4-yl]amino}ethyl)phenyl]-2-methylpropane-1-sulfonamide] |
| < 200 nM | < 500 nM | CNC(=O)c1ccc(CCNc2cc(-c3cccc(Cl)c3C)nc(N)n2)cc1 [Example 89, 4-[2-[[2-amino-6-(3-chloro-2-methyl-phenyl)pyrimidin-4-yl]amino]ethyl]-N-methyl-benzamide] |
| < 200 nM | < 500 nM | Cc1c(Cl)cccc1-c1cc(NCCc2ccc(C(=O)N3CCCC3)cc2)nc(N)n1 [Example 90, [4-[2-[[2-amino-6-(3-chloro-2-methyl-phenyl)pyrimidin-4-yl]amino]ethyl]phenyl]-pyrrolidin-1-yl-methanone] |
| < 200 nM | < 500 nM | Cc1c(Cl)cccc1-c1cc(NCCNc2ccc3c(c2)OCC(=O)N3)nc(N)n1 [Example 91, 7-[2-[[2-amino-6-(3-chloro-2-methyl-phenyl)pyrimidin-4-yl]amino]ethylamino]-4H-1,4-benzoxazin-3-one] |
| < 200 nM | < 500 nM | Cc1c(Cl)cccc1-c1cc(NCCNc2ccc3c(c2)N(C)C(=O)CO3)nc(N)n1 [Example 92, 6-[2-[[2-amino-6-(3-chloro-2-methyl-phenyl)pyrimidin-4-yl]amino]ethylamino]-4-methyl-1,4-benzoxazin-3-one] |
